Test results as given in patent publication US10815247B2, “Functionalized NANOLUC inhibitors” (PROMEGA CORPORATION, priority 2016, dated 2020).

target: NanoLuc (Oplophorus gracilirostris, UniProt Q9GV45, A31E/A60N/A81I/F95D/I117V/K70R/L54V/L99Q/M102K/N193R/P142E/Q151K/Q38R/Q45L/V71I/Y165I); assay: Inhibitor IC50 determination; type: biochemical; conditions: not given
Experimental: The following example provides the IC50 values for the compounds disclosed herein. NANOLUC® enzyme was diluted to 0.4 ng/ml in CO2 independent media+10% FBS to make the detection reagent. A 3× dilution series of each inhibitor was then made in the detection reagent. A “no inhibitor” control was also made for each sample. 50 ul of each inhibitor dilution was mixed with 50 ul of NanoGlo® buffer containing 20 μM furimazine (final furimazine concentration is 10 μM, which is at Km.), and luminescence was measured. Each sample was normalized to the “no inhibitor” control. The IC50 values were then determined using GraphPad Prism (log[inhibitor] vs. normalized response).

NanoLuc, sequence (Q9GV45 28-196 with tags or gaps with the stated changes limits assumed): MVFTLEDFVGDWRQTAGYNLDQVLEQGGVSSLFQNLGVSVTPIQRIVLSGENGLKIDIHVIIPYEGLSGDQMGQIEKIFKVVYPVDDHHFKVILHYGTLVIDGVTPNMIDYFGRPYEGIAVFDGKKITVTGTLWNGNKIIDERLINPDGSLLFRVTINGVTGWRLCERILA

| Compound | IC50 [nM] |
| --- | --- |
| CCc1cccc(N(CC)C(=O)Cn2c(C(=O)N[C@H]3CC[C@H](C(=O)NCCCCCCNC(=O)c4ccc5c(c4)C4(OC5=O)c5ccc(N(C)C)cc5Oc5cc(N(C)C)ccc54)CC3)cc3ccccc32)c1 [JRW-822, N-(trans-4-((6-(3′,6′-bis(dimethylamino)-3-oxo-3H-spiro[isobenzofuran-1,9′-xanthene]-6-carboxamido)hexyl)carbamoyl)cyclohexyl)-1-(2-(ethyl(3-ethylphenyl)amino)-2-oxoethyl)-1H-indole-2-carboxamide] | 3.3 |
| CCN(C(=O)Cn1c(C(=O)N[C@H]2CC[C@H](C(=O)NCCCCCCNC(=O)c3ccc4c(c3)C3(OC4=O)c4ccc(N(C)C)cc4Oc4cc(N(C)C)ccc43)CC2)cc2sccc21)c1cccc(C)c1 [JRW-0824] | 180 |
| CCc1cccc(N(CC)C(=O)Cn2c(C(=O)N[C@H]3CC[C@H](C(=O)NCCCCCCNC(=O)CCc4ccc5n4[B-](F)(F)[N+]4=C(C)C=C(C)C4=C5)CC3)cc3ccccc32)c1 [JRW-0827, N-(trans-4-((6-(3-(5,5-difluoro-7,9-dimethyl-5H-514,614-dipyrrolo[1,2-c:2′,1′-f][1,3,2]diazaborinin-3-yl)propanamido)hexyl)carbamoyl)cyclohexyl)-1-(2-(ethyl(3-ethylphenyl)amino)-2-oxoethyl)-1H-indole-2-carboxamide] | 2.7 |
| CCN(C(=O)Cn1c(C(=O)N[C@H]2CC[C@H](C(=O)NCCCCCCNC(=O)CCc3ccc4n3[B-](F)(F)[N+]3=C(C)C=C(C)C3=C4)CC2)cc2sccc21)c1cccc(C)c1 [JRW-0829, N-(trans-4-((6-(3-(5,5-difluoro-7,9-dimethyl-5H-514,614-dipyrrolo[1,2-c:2′,1′-f][1,3,2]diazaborinin-3-yl)propanamido)hexyl)carbamoyl)cyclohexyl)-4-(2-(ethyl(m-tolyl)amino)-2-oxoethyl)-4H-thieno[3,2-b]pyrrole-5-carboxamide] | 480 |
| CCN(C(=O)Cn1c(C(=O)N[C@H]2CC[C@H](C(=O)NCCCCCCCC(=O)ON3C(=O)CC(S(=O)(=O)O)C3=O)CC2)cc2sccc21)c1cccc(C)c1 (stereo partly drawn) [JRW-0830, sodium 1-((8-(trans-4-(4-(2-(ethyl(m-tolyl)amino)-2-oxoethyl)-4H-thieno[3,2-b]pyrrole-5-carboxamido)cyclohexane-1-carboxamido)octanoyl)oxy)-2,5-dioxopyrrolidine-3-sulfonate] | 4.2 |
| CCN(C(=O)Cn1c(C(=O)N[C@H]2CC[C@H](C(=O)NCCCCCCCC(=O)Oc3ccc(F)cc3)CC2)cc2sccc21)c1cccc(C)c1 [JRW-0831] | 320 |
| CCN(C(=O)Cn1c(C(=O)N[C@H]2CC[C@H](C(=O)NCCCCCCCC(=O)Oc3cc(F)cc(F)c3)CC2)cc2sccc21)c1cccc(C)c1 [JRW-0833, 3,5-difluorophenyl 8-(trans-4-(4-(2-(ethyl(m-tolyl)amino)-2-oxoethyl)-4H-thieno[3,2-b]pyrrole-5-carboxamido)cyclohexane-1-carboxamido)octanoate] | 20 |
| CCN(C(=O)Cn1c(C(=O)N[C@H]2CC[C@H](C(=O)NCCCCCCCC(=O)Oc3ccc(C#N)cc3)CC2)cc2sccc21)c1cccc(C)c1 [JRW-0834, 4-cyanophenyl 8-(trans-4-(4-(2-(ethyl(m-tolyl)amino)-2-oxoethyl)-4H-thieno[3,2-b]pyrrole-5-carboxamido)cyclohexane-1-carboxamido)octanoate] | 3.3 |
| CCN(C(=O)Cn1c(C(=O)N[C@H]2CC[C@H](C(=O)NCCCCCNC(=O)CCl)CC2)cc2sccc21)c1cccc(C)c1 [JRW-0844, N-(trans-4-((5-(2-chloroacetamido)pentyl)carbamoyl)cyclohexyl)-4-(2-(ethyl(m-tolyl)amino)-2-oxoethyl)-4H-thieno[3,2-b]pyrrole-5-carboxamide] | 41 |
| CCN(C(=O)Cn1c(C(=O)N[C@H]2CC[C@H](C(=O)NCCCCCCNC(=O)CCl)CC2)cc2sccc21)c1cccc(C)c1 [JRW-0846, N-(trans-4-((6-(2-chloroacetamido)hexyl)carbamoyl)cyclohexyl)-4-(2-(ethyl(m-tolyl)amino)-2-oxoethyl)-4H-thieno[3,2-b]pyrrole-5-carboxamide] | 16 |
| CCN(C(=O)Cn1c(C(=O)N[C@H]2CC[C@H](C(=O)NCCCCCCCC(=O)Oc3c(F)c(F)cc(F)c3F)CC2)cc2sccc21)c1cccc(C)c1 [JRW-0847] | 0.3 |
| CCN(C(=O)Cn1c(C(=O)N[C@H]2CC[C@H](C(=O)NCCCCCNC(=O)CBr)CC2)cc2sccc21)c1cccc(C)c1 [JRW-0870, N-(trans-4-((5-(2-bromoacetamido)pentyl)carbamoyl)cyclohexyl)-4-(2-(ethyl(m-tolyl)amino)-2-oxoethyl)-4H-thieno[3,2-b]pyrrole-5-carboxamide] | 42 |
| CCc1cccc(N(CC)C(=O)Cn2c(C(=O)N[C@H]3CC[C@H](C(=O)NCCCCCCCCNC(=O)c4ccc5c(c4)C(=O)OC54c5ccc(O)cc5Oc5cc(O)ccc54)CC3)cc3ccccc32)c1 [JRW-0882, N-(trans-4-((8-(3′,6′-dihydroxy-3-oxo-3H-spiro[isobenzofuran-1,9′-xanthene]-5-carboxamido)octyl)carbamoyl)cyclohexyl)-1-(2-(ethyl(3-ethylphenyl)amino)-2-oxoethyl)-1H-indole-2-carboxamide] | 1.1 |
| CCN(C(=O)Cn1c(C(=O)N[C@H]2CC[C@H](C(=O)NCCCCCCCCNC(=O)c3ccc4c(c3)C(=O)OC43c4ccc(O)cc4Oc4cc(O)ccc43)CC2)cc2sccc21)c1cccc(C)c1 [JRW-0883] | 5.4 |
| CCc1cccc(N(CC)C(=O)Cn2c(C(=O)N[C@H]3CC[C@H](C(=O)NCCCCCCCCNC(=O)CCc4ccc5n4[B-](F)(F)[N+]4=C(C)C=C(C)C4=C5)CC3)cc3ccccc32)c1 [JRW-0888, N-(trans-4-((8-(3-(5,5-difluoro-7,9-dimethyl-5H-5λ4,6λ4-dipyrrolo[1,2-c:2′,1′-f][1,3,2]diazaborinin-3-yl)propanamido)octyl)carbamoyl)cyclohexyl)-1-(2-(ethyl(3-ethylphenyl)amino)-2-oxoethyl)-1H-indole-2-carboxamide] | 26 |
| CCc1cccc(N(CC)C(=O)Cn2c(C(=O)N[C@H]3CC[C@H](C(=O)NCCCCCCNC(=O)CCOCCOCCNC(=O)c4ccc5c(c4)C4(OC5=O)c5ccc(N(C)C)cc5Oc5cc(N(C)C)ccc54)CC3)cc3ccccc32)c1 [JRW-0915, N-(trans-4-((1-(3′,6′-bis(dimethylamino)-3-oxo-3H-spiro[isobenzofuran-1,9′-xanthen]-6-yl)-1,11-dioxo-5,8-dioxa-2,12-diazaoctadecan-18-yl)carbamoyl)cyclohexyl)-1-(2-(ethyl(3-ethylphenyl)amino)-2-oxoethyl)-1H-indole-2-carboxamide] | 5.2 |
| CCc1cccc(N(CC)C(=O)Cn2c(C(=O)N[C@H]3CC[C@H](C(=O)NCCCCCCCCNC(=O)CCOCCOCCNC(=O)c4ccc5c(c4)C4(OC5=O)c5ccc(N(C)C)cc5Oc5cc(N(C)C)ccc54)CC3)cc3ccccc32)c1 [JRW-0920, N-(trans-4-((1-(3′,6′-bis(dimethylamino)-3-oxo-3H-spiro[isobenzofuran-1,9′-xanthen]-6-yl)-1,11-dioxo-5,8-dioxa-2,12-diazaicosan-20-yl)carbamoyl)cyclohexyl)-1-(2-(ethyl(3-ethylphenyl)amino)-2-oxoethyl)-1H-indole-2-carboxamide] | 1.7 |
| CCc1cccc(N(CC)C(=O)Cn2c(C(=O)N[C@H]3CC[C@H](C(=O)NCCCCCCCCNC(=O)CCC(=O)NCCC4=C5C=CC=[N+]5[B-](F)(F)n5c(C)cc(C)c54)CC3)cc3ccccc32)c1 [JRW-1081, N1-(2-(5,5-difluoro-1,3-dimethyl-5H-5λ4,6λ4-dipyrrolo[1,2-c:2′,1′-f][1,3,2]diazaborinin-10-yl)ethyl)-N4-(8-(trans-4-(1-(2-(ethyl(3-ethylphenyl)amino)-2-oxoethyl)-1H-indole-2-carboxamido)cyclohexane-1-carboxamido)octyl)succinamide] | 6 |

same assay, conditions: 0.4 ng/ml NANOLUC in CO2 independent media+10% FBS; final furimazine 10 μM; no pre-incubation noted; read-out: IC50

| Compound | IC50 [nM] |
| --- | --- |
| CCN(C(=O)Cn1c(C(=O)N[C@H]2CC[C@H](C(=O)NCCCCCCNC(=O)c3ccc4c(c3)C3(OC4=O)c4ccc(N)cc4Oc4cc(N)ccc43)CC2)cc2sccc21)c1cccc(C)c1 [JRW-0863] | 36 |
| CCN(C(=O)Cn1c(C(=O)N[C@H]2CC[C@H](C(=O)NCCCCCCCCNC(=O)c3ccc4c(c3)C(=O)OC43c4ccc(N)cc4Oc4cc(N)ccc43)CC2)cc2sccc21)c1cccc(C)c1 [JRW-0887] | 6.3 |
| CCN(C(=O)Cn1c(C(=O)NC2CCC(C(=O)NCCCCCCCCNC(=O)CCC3=[N+]4C(=Cc5c(C)cc(C)n5[B-]4(F)F)C=C3)CC2)cc2sccc21)c1cccc(C)c1 (stereo not drawn) [JRW-0889, N-(trans-4-((8-(3-(5,5-difluoro-7,9-dimethyl-5H-5λ4,6λ4-dipyrrolo[1,2-c:2′,1′-f][1,3,2]diazaborinin-3-yl)propanamido)octyl)carbamoyl)cyclohexyl)-4-(2-(ethyl(m-tolyl)amino)-2-oxoethyl)-4H-thieno[3,2-b]pyrrole-5-carboxamide] | 280 |
| N1-(2-(5,5-difluoro-1,3-dimethyl-5H-5λ4,6λ4-dipyrrolo[1,2-c:2′,1′-f][1,3,2]diazaborinin-10-yl)ethyl)-N4-(1-(trans-4-(1-(2-(ethyl(3-ethylphenyl)amino)-2-oxoethyl)-1H-indole-2-carboxamido)cyclohexyl)-1,10-dioxo-13,16-dioxa-2,9-diazaoctadecan-18-yl)succinamide [JRW-1082] | 3.3 |
| N1-(2-(5,5-difluoro-1,3-dimethyl-5H-5λ4,6λ4-dipyrrolo[1,2-c:2′,1′-f][1,3,2]diazaborinin-10-yl)ethyl)-N4-(1-(trans-4-(1-(2-(ethyl(3-ethylphenyl)amino)-2-oxoethyl)-1H-indole-2-carboxamido)cyclohexyl)-1,12-dioxo-15,18-dioxa-2,11-diazaicosan-20-yl)succinamide [JRW-1083] | 1.8 |
